1 compound from patent US6994862B2, “Formulation solubilizing water-insoluble agents and preparation method thereof” (Korea Institute of Science and Technology, priority 2000, dated 2006) can be followed below.

The data set in a line: Release experiment of a pharmaceutical compound (dialysis bag, PBS pH 7.4, 37° C.). The data set is classed as physicochemical. The note with it: within 5 hr; dialysis bag in PBS pH 7.4, 37° C. The procedure:
Dispersion was prepared by mixing 250 μL of the above liquid formulation with 1.75 mL of distilled water and shaken manually. The mixture was then added into a dialysis bag (MWCO=3,500, Spectra/Por^R, Spectrum Medical Industries, Inc., USA), both ends were tied with a closure, and placed into a 50 ml conical tube containing 10 ml of phosphate buffered saline (PBS, pH=7.4). The conical tube was placed in a 37° C. shaking water bath for the release experiment. The PBS solution located outside the dialysis tube was collected at regular intervals to analyze concentration of the pharmaceutical compound released from the dialysis bag by using Fluorescence spectroscopy (λex=370 nm, λem=480 nm). An aqueous solution where 0.7 mg of rifampicin was dissolved in 2 mL of distilled water was used as a control.
Release experiment was performed using the liquid formulation manufactured the same as in the experimental Example 1 with the exception that 0.7 mg of bromocresol green was used in place of rifampicin. The released drug was collected from the PBS solution and subsequently analyzed for its absorbance at 617 nm. An aqueous solution, where 0.7 mg of bromocresol green was dissolved in 2 mL of distilled water, was used as a control.

For `Cc1c(C2(c3cc(Br)c(O)c(Br)c3C)OS(=O)(=O)c3ccccc32)cc(Br)c(O)c1Br` [bromocresol green], the drug released result is “more than 80%”.
